Laboratory results published in PubChem BioAssay (NCI).
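Here, GI50 denotes the concentration required for 50% inhibition of growth. TGI marks complete inhibition of growth.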

Columns and labels:
Assay in all cases: growth of human tumour cells (NCI), 384-well format
HCT-15 colon = test system: HCT-15 colon
DU-145 prostate = test system: DU-145 prostate
UACC-257 melanoma = test system: UACC-257 melanoma
SK-OV-3 ovarian = test system: SK-OV-3 ovarian
SF-268 CNS = test system: SF-268 CNS
NCI-H226 lung = test system: NCI-H226 lung
MDA-MB-435 melanoma = test system: MDA-MB-435 melanoma
SK-MEL-2 melanoma = test system: SK-MEL-2 melanoma
RPMI-8226 leukemia = test system: RPMI-8226 leukemia
NCI/ADR-RES ovarian = test system: NCI/ADR-RES ovarian
PC-3 prostate = test system: PC-3 prostate
NCI-H23 lung = test system: NCI-H23 lung
MOLT-4 leukemia = test system: MOLT-4 leukemia
SW-620 colon = test system: SW-620 colon
HOP-92 NSCLC = test system: HOP-92 NSCLC
HOP-62 NSCLC = test system: HOP-62 NSCLC
NCI-H522 lung = test system: NCI-H522 lung
SF-539 CNS = test system: SF-539 CNS
UO-31 renal = test system: UO-31 renal
MALME-3M melanoma = test system: MALME-3M melanoma
NCI-H460 NSCLC = test system: NCI-H460 NSCLC
NCI-H322M lung = test system: NCI-H322M lung
CCRF-CEM leukemia = test system: CCRF-CEM leukemia
MDA-MB-231 breast = test system: MDA-MB-231 breast
SF-295 CNS = test system: SF-295 CNS
OVCAR-3 ovarian = test system: OVCAR-3 ovarian
SN12C renal = test system: SN12C renal
HT29 colon = test system: HT29 colon
OVCAR-5 ovarian = test system: OVCAR-5 ovarian
SK-MEL-28 melanoma = test system: SK-MEL-28 melanoma
SNB-19 CNS = test system: SNB-19 CNS
HCT-116 colon = test system: HCT-116 colon
SK-MEL-5 melanoma = test system: SK-MEL-5 melanoma
M14 melanoma = test system: M14 melanoma
A498 renal = test system: A498 renal
HL-60(TB) leukemia = test system: HL-60(TB) leukemia
K-562 leukemia = test system: K-562 leukemia
T-47D breast = test system: T-47D breast
TK-10 renal = test system: TK-10 renal
IGROV1 ovarian = test system: IGROV1 ovarian
CAKI-1 renal = test system: CAKI-1 renal
786-0 renal = test system: 786-0 renal
OVCAR-8 ovarian = test system: OVCAR-8 ovarian
MCF7 breast = test system: MCF7 breast
OVCAR-4 ovarian = test system: OVCAR-4 ovarian
BT-549 breast = test system: BT-549 breast
KM12 colon = test system: KM12 colon
LOX IMVI melanoma = test system: LOX IMVI melanoma
UACC-62 melanoma = test system: UACC-62 melanoma
A549 NSCLC = test system: A549 NSCLC
U251 glioblastoma = test system: U251 glioblastoma
ACHN renal = test system: ACHN renal
COLO 205 colon = test system: COLO 205 colon
HCC-2998 colon = test system: HCC-2998 colon
RXF 393 renal = test system: RXF 393 renal
MDA-MB-468 breast = test system: MDA-MB-468 breast
SR leukemia = test system: SR leukemia

SMILES: Cc1c(N(C(=O)c2cc(-c3cc(Cl)ccc3C(=O)N3Cc4ccccc4C[C@H]3CN3CCOCC3)n(C)c2C)c2ccc(O)cc2)cc(C#N)n1C
- GI50 (HCT-15 colon): 9.36 µM
- TGI (HCT-15 colon): 24.1 µM
- GI50 (DU-145 prostate): 16.3 µM
- TGI (DU-145 prostate): > 100 µM
- GI50 (UACC-257 melanoma): 10.1 µM
- TGI (UACC-257 melanoma): 28.5 µM
- GI50 (SK-OV-3 ovarian): 11.5 µM
- TGI (SK-OV-3 ovarian): 45.2 µM
- GI50 (SF-268 CNS): 22 µM
- TGI (SF-268 CNS): > 100 µM
- GI50 (NCI-H226 lung): 9.16 µM
- TGI (NCI-H226 lung): 22.2 µM
- GI50 (MDA-MB-435 melanoma): 5.21 µM
- TGI (MDA-MB-435 melanoma): 19.3 µM
- GI50 (SK-MEL-2 melanoma): 5.97 µM
- TGI (SK-MEL-2 melanoma): 20 µM
- GI50 (RPMI-8226 leukemia): 1.26 µM
- TGI (RPMI-8226 leukemia): 2.52 µM
- GI50 (NCI/ADR-RES ovarian): 50.5 µM
- TGI (NCI/ADR-RES ovarian): > 100 µM
- GI50 (PC-3 prostate): 7.32 µM
- TGI (PC-3 prostate): 65.6 µM
- GI50 (NCI-H23 lung): 9.38 µM
- TGI (NCI-H23 lung): > 100 µM
- GI50 (MOLT-4 leukemia): 1.61 µM
- TGI (MOLT-4 leukemia): 2.97 µM
- GI50 (SW-620 colon): 11.3 µM
- TGI (SW-620 colon): 25.7 µM
- GI50 (HOP-92 NSCLC): 2.58 µM
- TGI (HOP-92 NSCLC): 7.15 µM
- GI50 (HOP-62 NSCLC): 5.87 µM
- TGI (HOP-62 NSCLC): 29.3 µM
- GI50 (NCI-H522 lung): 12.8 µM
- TGI (NCI-H522 lung): 36.8 µM
- GI50 (SF-539 CNS): 9.73 µM
- TGI (SF-539 CNS): > 100 µM
- GI50 (UO-31 renal): 10.9 µM
- TGI (UO-31 renal): > 100 µM
- GI50 (MALME-3M melanoma): 19.2 µM
- TGI (MALME-3M melanoma): 47.2 µM
- GI50 (NCI-H460 NSCLC): 6.2 µM
- TGI (NCI-H460 NSCLC): > 100 µM
- GI50 (NCI-H322M lung): 24.7 µM
- TGI (NCI-H322M lung): > 100 µM
- GI50 (CCRF-CEM leukemia): 1.68 µM
- TGI (CCRF-CEM leukemia): 3.11 µM
- GI50 (MDA-MB-231 breast): 3.74 µM
- TGI (MDA-MB-231 breast): 14.1 µM
- GI50 (SF-295 CNS): 13.4 µM
- TGI (SF-295 CNS): 62.6 µM
- GI50 (OVCAR-3 ovarian): 3.87 µM
- TGI (OVCAR-3 ovarian): 18.9 µM
- GI50 (SN12C renal): 9.51 µM
- TGI (SN12C renal): > 100 µM
- GI50 (HT29 colon): 10.9 µM
- TGI (HT29 colon): 43.6 µM
- GI50 (OVCAR-5 ovarian): 28 µM
- TGI (OVCAR-5 ovarian): > 100 µM
- GI50 (SK-MEL-28 melanoma): 17.1 µM
- TGI (SK-MEL-28 melanoma): 67.1 µM
- GI50 (SNB-19 CNS): 7.72 µM
- TGI (SNB-19 CNS): > 100 µM
- GI50 (HCT-116 colon): 4.12 µM
- TGI (HCT-116 colon): > 100 µM
- GI50 (SK-MEL-5 melanoma): 9.04 µM
- TGI (SK-MEL-5 melanoma): 28.4 µM
- GI50 (M14 melanoma): 12 µM
- TGI (M14 melanoma): 34.1 µM
- GI50 (A498 renal): 4.79 µM
- TGI (A498 renal): 19 µM
- GI50 (HL-60(TB) leukemia): 0.0546 µM
- TGI (HL-60(TB) leukemia): 1.19 µM
- GI50 (K-562 leukemia): 4.85 µM
- TGI (K-562 leukemia): 38.2 µM
- GI50 (T-47D breast): 6.85 µM
- TGI (T-47D breast): > 100 µM
- GI50 (TK-10 renal): 12.5 µM
- TGI (TK-10 renal): 58.6 µM
- GI50 (IGROV1 ovarian): 13.5 µM
- TGI (IGROV1 ovarian): > 100 µM
- GI50 (CAKI-1 renal): 9.01 µM
- TGI (CAKI-1 renal): 66.1 µM
- GI50 ([…]-0 renal): 6.22 µM
- TGI (786-0 renal): 30 µM
- GI50 (OVCAR-8 ovarian): 8.66 µM
- TGI (OVCAR-8 ovarian): > 100 µM
- GI50 (MCF7 breast): 11.4 µM
- TGI (MCF7 breast): > 100 µM
- GI50 (OVCAR-4 ovarian): 5.99 µM
- TGI (OVCAR-4 ovarian): 37.5 µM
- GI50 (BT-549 breast): 12.5 µM
- TGI (BT-549 breast): 30.9 µM
- GI50 (KM12 colon): 16.1 µM
- TGI (KM12 colon): > 100 µM
- GI50 (LOX IMVI melanoma): 10.4 µM
- TGI (LOX IMVI melanoma): 33 µM
- GI50 (UACC-62 melanoma): 6.3 µM
- TGI (UACC-62 melanoma): 27.3 µM
- GI50 (A549 NSCLC): 7.07 µM
- TGI (A549 NSCLC): > 100 µM
- GI50 (U251 glioblastoma): 7.69 µM
- TGI (U251 glioblastoma): > 100 µM
- GI50 (ACHN renal): 7.31 µM
- TGI (ACHN renal): > 100 µM
- GI50 (COLO 205 colon): 25.5 µM
- TGI (COLO 205 colon): > 100 µM
- GI50 (HCC-2998 colon): 3.35 µM
- TGI (HCC-2998 colon): 8.64 µM
- GI50 (RXF 393 renal): 0.886 µM
- TGI (RXF 393 renal): 3.92 µM
- GI50 (MDA-MB-468 breast): 2.84 µM
- TGI (MDA-MB-468 breast): 7.25 µM
- GI50 (SR leukemia): 1.46 µM
- TGI (SR leukemia): 2.87 µM
